Results taken from publication PMC6567057, “Pharmacokinetic, metabolic stability, plasma protein binding and CYP450s inhibition/induction assessment studies of N-(2-pyridylmethyl)-2-hydroxiymethyl-1-pyrrolidinyl-4-(3-chloro-4-methoxy-benzylamino)-5-pyrimidine-carboxamide as potential type 5 phosphodiesterase inhibitors” (Animal Cells and Systems, 2019).
Read-outs that look alike come from different tables or passages of the source.

Assays:
[1] = In vivo pharmacokinetic study in rats; parameters: species or system male Sprague–Dawley rats; settings: rat; for MRT inf: read-out: MRT0-∞
Protocol: For the iv experiment, male SD rats (n = 3) were given a single dose of NHPPC (1 mg/kg) over 1 min by dorsal venous arch of foot. Approximately 200 µL blood samples were collected at 5, 15, 30 min and 1, 2, 4, 6, 8 and 24 h post-dose via tail vein into heparinized (coated with 0.1% heparin in saline) tubes. For the oral experiments, the male rats (n = 3) were given a single dose of 2 mg/kg. Then the blood samples were collected at 10, 30 min and 1, 2, 4, 6, 8 and 24 h post-dose. Plasma was obtained after centrifugation at 8000 rpm for 6 min (4°C) within 10 min of blood-drawing and stored at –70°C until they were analyzed.
Data analysis including analyte/IS was acquired using Analyst version 1.6.1 software (AB SCIEX). All pharmacokinetic parameters (for example: K10, AUC0–t, AUC0-∞, Cmax, Tmax, t1/2, CL, Vss, MRT0–∞, etc.) were analyzed based on a non-compartmental model and using Pharsight WinNonlin version 6.3 (St. Louis, USA). The area under the concentration time curve (AUC0–t and AUC0–∞) was calculated by linear trapezoidal rule. The natural logarithms (Ln) of the fraction remaining against incubation times (min) was plotted and the first-order rate constant of turnover is determined by a linear regression model. The final results (for example: the mean, standard deviation, the remaining, device recovery, ke, bioavailability, etc.) were electronically exported into Excel 7.0 (Redmond, USA) for data processing and formatting.

[2] = Stability in plasma, 6 h incubation at 37°C (human); format: in vitro ADME
Protocol: (§1) The phosphate buffer (100 mM) and sodium hydroxide solution (1.0 M) were prepared in deionized water. […] PPB was determined by equilibrium dialysis method. An aliquot (150 μL) of NHPPC spiked plasma and phosphate buffer (pH 7.4) was added into the donor side and the receiver side of each designated well. The plate was covered with adhesive sealing film to prevent evaporation and placed in a water-bath shaker kept at 37°C for 6 h with a rate of 50 rpm. […] At the end of 6 h, aliquots were taken from each side of each well (n = 3) and kept in a −20°C freezer prior to analysis. The stability, device recovery and PPB were calculated using the following equations: Remaining at 6 h (%)=C6h/C0h×100%, Device recovery (%)=CDonor+CReceiver/C6h×100%, PPB (%)=CDonor−CReceiver/CDonor×100%.

[3] = In vitro metabolic stability in rat liver microsomes; format: in vitro ADME; settings: for remaining at 1 h, 1 µM: liver microsomes, pH 7.4, rat liver microsomes, 60 min, read-out: percent remaining
Protocol: The phosphate buffer (pH 7.4, 100 mM) and (300 mM) were prepared in deionized water. NADP and IA were dissolved in phosphate buffer and MgCl2 solution and then added 20 μL IDH (18 units/mg protein) and mixed. NHPPC (1 mM) and positive control drug were prepared by dilution using DMSO and then the NHPPC and positive control drug working solution (50 μM) were obtained by dilution using methanol: H2O (1:1, v/v) mixture. Pooled human, rat and dog liver microsomes were added to phosphate buffer pH7.4 to a concentration 20 mg/mL. NHPPC was incubated with liver microsomes. The incubation solution of the final reaction conditions contained 50 mM potassium phosphate buffer (pH 7.4), 0.5 mg protein/mL microsomes, 3 mM MgCl2, 2 mM NADPH and 1 μM NHPPC or positive control drug in a final volume of 100 μL. In sample and positive control groups, NADPH was added into the incubation solutions. In the negative control group, water (the replacement of NADPH) was added into the incubation solutions. Samples were incubated aerobically in a shaking water bath at 37°C and the reaction was terminated by adding 300 μL of ice cold acetonitrile (contain 100 ng/mL IS) at different interval 0, 5, 10, 20, 30 and 60 min. While positive control and negative control were incubated aerobically in a shaking water bath at 37°C for 0 and 60 min, respectively. NHPPC and control concentrations were determined by LC-MS/MS at each time point (n = 3). Calculation of t1/2 and CLint was performed by using following equations, where K is the elimination rate constant (min^−1) and QH is hepatic blood flow (mL/min/kg). t1/2=0.693/KCLint,in vitro=VD×KVD=Volume of reaction mixture(mL)/mg of protein per reation.
Hepatic intrinsic clearance was estimated by using the scaling factors and calculated by using the following equation (Lave et al. [1997]). CLint,in vivo=CLint×mg microsomal protein per liver×g liver per kg body weight, Cint,H=CLint,in vivo×QH/CLint,in vivo+QH,EH=CLint,H/QH.

[4] = Plasma protein binding by equilibrium dialysis (human); format: in vitro ADME
Protocol: as §1

human plasma proteins = assay: as above; format: in vitro ADME; settings: human plasma, mean of 0.2 and 1 µM
Protocol: as §1

rabbit model = assay: Preliminary efficacy experiment of rabbit model in vivo; settings: compared with avanafil, data not published
[5] = Plasma protein binding by equilibrium dialysis (rat); format: in vitro ADME, Sprague–Dawley rat; settings: Sprague-Dawley
Protocol: as §1

rat plasma proteins = assay: as above; format: in vitro ADME, Sprague–Dawley rat; settings: rat plasma, mean of 0.2 and 1 µM
Protocol: as §1

[6] = Stability in plasma, 6 h incubation at 37°C (rat); format: in vitro ADME; settings: Sprague-Dawley
Protocol: as §1

[7] = male, Sprague-Dawley, plasma, IV 1 mg/kg
[8] = male, Sprague-Dawley, plasma, PO 2 mg/kg
[9] = 0.2 µM, n = 3, read-out: Mean drug remaining %
[10] = 1 µM, n = 3, read-out: Mean drug remaining %
[11] = mean of 0.2 and 1 µM, read-out: Mean drug remaining %

## COc1ccc(CNc2nc(N3CCC[C@H]3CO)ncc2C(=O)NCc2ccccn2)cc1Cl [NHPPC, N-(2-pyridylmethyl)-2-hydroxiymethyl-1-pyrrolidinyl-4-(3-chloro-4-methoxy-benzylamino)-5-pyrimidine-carboxamide]
[1]; [7]
  AUC(0-inf): 866 ± 201 ng·h/mL
  AUC(0-t): 847 ± 195 ng·h/mL
  clearance: 19.8 mL/min/kg
  half-life: 4.55 ± 0.11 h
  MRT inf: 5.5 ± 0.36 h
[1]; male, Sprague-Dawley, plasma, IV 1 mg/kg, read-out: Vss
  Vd: 6.5 ± 1 L/kg
[1]; [8]
  AUC(0-inf): 593 ± 137 ng·h/mL
  AUC(0-t): 583 ± 135 ng·h/mL
  Cmax: 52.6 ± 12.9 ng/mL
  Tmax: 6 h
  half-life: 4.02 ± 0.39 h
  MRT inf: 7.8 ± 0.79 h
[1]; IV 1 mg/kg
  K10: 0.15 ± 0.00 h⁻¹
[1]; PO 2 mg/kg
  K10: 0.17 ± 0.02 h⁻¹
[2]; [9]
  remaining at 6 h, 0.2 µM: 99.8 ± 1.37%
[2]; [10]
  remaining at 6 h, 1 µM: 102 ± 1.5%
[2]; [11]
  remaining at 6 h: 101 ± 1.23%
[3]; pH 7.4, rat liver microsomes
  half-life at 1 µM: 0.708 h
[3]; pH 7.4, rat liver microsomes, read-out: CLint, ivtro
  microsomal CLint at 1 µM: 23.3 µL/min/mg
[3]; pH 7.4, rat liver microsomes, read-out: Ke (converted)
  k el at 1 µM: 0.000272 s⁻¹
[3]; rat, in the presence of NADPH, 1 μM
  remaining at 1 h, 1 µM: 42.8%
[3]; rat, without NADPH regenerating system
  remaining at 1 h, 1 µM: 102%
[3]; rat, ranking criteria of Houston 1994, Kerns and Di 2008
  ranking for clearance: middle clearance
[3]; rat, scaled from liver microsomes
  CLH: 27.5 mL/min/kg
[4]; human, plasma, pH 7.4, human plasma, 0.2 µM, equilibrium dialysis 6 h, read-out: Mean PPB % (converted)
  fraction unbound at 6 h, 0.2 µM: 0.007
[4]; human, plasma, pH 7.4, human plasma, 1 µM, equilibrium dialysis 6 h, read-out: Mean PPB % (converted)
  fraction unbound at 6 h, 1 µM: 0.005
[4]; pH 7.4, human plasma, equilibrium dialysis, n = 3, read-out: Mean device recovery %
  recovery at 6 h, 0.2 μM: 101.2 ± 0.02%
Human plasma proteins
  Mean PPB %: 99.4 ± 0.13%
Rabbit model
  preliminary efficacy: stronger than avanafil
[5]; pH 7.4, rat plasma, equilibrium dialysis, n = 3, read-out: Mean device recovery %
  recovery at 6 h, 0.2 μM: 98.6 ± 0.13%
[5]; rat, plasma, pH 7.4, rat plasma, 0.2 µM, equilibrium dialysis 6 h, read-out: Mean PPB % (converted)
  fraction unbound at 6 h, 0.2 µM: 0.043
[5]; rat, plasma, pH 7.4, rat plasma, 1 µM, equilibrium dialysis 6 h, read-out: Mean PPB % (converted)
  fraction unbound at 6 h, 1 µM: 0.033
[5]; rat, plasma, pH 7.4, rat plasma, mean of 0.2 and 1 µM, read-out: Mean PPB %
  fraction unbound at 6 h: < 0.05
Rat plasma proteins
  Mean PPB %: 96.2 ± 0.18%
[6]; [9]
  remaining at 6 h, 0.2 µM: 100 ± 1.93%
[6]; [10]
  remaining at 6 h, 1 µM: 102 ± 1.26%
[6]; [11]
  remaining at 6 h: 101 ± 1.01%
